Measurements taken from ChEMBL document CHEMBL4837253, “Structure-Based Discovery of Proline-Derived Arginase Inhibitors with Improved Oral Bioavailability for Immuno-Oncology” (ACS Med Chem Lett, 2021).
Active and inactive are the calls of the source. The calls are words filed in the database; no cut-off is given here.

Columns and labels:
Arginase-1 [1] = biological target: T1, Arginase-1 (Homo sapiens, UniProt P05089); test: Inhibition of human recombinant ARG1 expressed in Escherichia coli using thioarginine as a substrate preincubated for 30 mins followed by substrate addition and incubated for 60 mins by fluorescence based arginine thio ornithine generating assay
T1 sequence (P05089 whole entry): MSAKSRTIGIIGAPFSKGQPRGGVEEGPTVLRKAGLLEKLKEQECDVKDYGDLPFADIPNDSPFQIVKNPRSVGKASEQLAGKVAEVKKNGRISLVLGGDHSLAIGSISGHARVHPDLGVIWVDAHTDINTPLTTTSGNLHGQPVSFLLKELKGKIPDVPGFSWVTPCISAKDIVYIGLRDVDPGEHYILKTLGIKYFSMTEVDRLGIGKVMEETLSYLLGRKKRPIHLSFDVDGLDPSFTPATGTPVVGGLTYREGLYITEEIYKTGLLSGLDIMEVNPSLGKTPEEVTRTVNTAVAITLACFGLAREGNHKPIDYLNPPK

[2] = Oral bioavailability in C57BL/6 mouse at 10 mg/kg; format: ADME, organism-based; conditions: in vivo
[3] = Stability in C57BL/6 mouse hepatocytes; format: ADME, cell-based, Hepatocyte
[4] = Oral bioavailability in Wister Han rat at 10 mg/kg; format: ADME, organism-based; conditions: in vivo
Arginase-1 [5] = biological target: T1, Arginase-1; test: Inhibition of human ARG1 in HEK293 cells by cell based assay
[6] = Oral bioavailability in C57BL/6 mouse in the presence of compound 18 at 10 mg/kg; format: ADME, organism-based; conditions: in vivo
[7] = Metabolic stability in C57BL/6 mouse hepatocytes assessed as hydrolysis product of (2S,3R,4R)-4-amino-3-(3-boronopropyl)pyrrolidine-2-carboxylic acid measured; format: ADME, cell-based, Hepatocyte
[8] = Drug uptake in tumor of EMT6 tumor bearing BALB/c mouse at 30 to 300 mg/kg, po administered twice daily measured after 2 days; format: ADME, organism-based, Neoplasm; conditions: in vivo, 48 h, dose 30-300 mg/kg, time 2 day
EMT6 [9] = test: In vivo inhibition of […] in EMT6 tumor bearing BALB/c mouse assessed as elevated arginine levels in serum measured after 2 days; format: functional, organism-based; conditions: time 2.0 day
EMT6 [10] = test: In vivo inhibition of […] in EMT6 tumor bearing BALB/c mouse assessed as elevated arginine levels in tumor measured after 2 days; format: functional, organism-based; conditions: time 2.0 day
EMT6 [11] = test: In vivo inhibition of […] in EMT6 tumor bearing BALB/c mouse assessed as elevated arginine levels in tumor in the presence of mouse anti-PD-1 mAb at 250 mg/kg, po administered twice daily measured after 14 days; format: functional, organism-based; conditions: Neoplasm, time 14.0 day
[12] = Toxicity in EMT6 tumor bearing BALB/c mouse assessed as change in body weight at 30 to 300 mg/kg, po administered twice daily measured up to 14 days; format: organism-based; conditions: in vivo, 336 h, dose 30-300 mg/kg, time <=14 day
EMT6 [13] = test: In vivo inhibition of […] in EMT6 tumor bearing BALB/c mouse assessed as elevated arginine levels in serum in the presence of mouse anti-PD-1 mAb at 250 mg/kg, po administered twice daily measured after 14 days; format: functional, organism-based; conditions: time 14.0 day
EMT6 [14] = test: In vivo inhibition of […] in EMT6 tumor bearing BALB/c mouse assessed as elevated arginine levels in tumor at 250 mg/kg, po administered twice daily measured after 14 days; format: functional, organism-based; conditions: Neoplasm, time 14.0 day
[15] = Drug uptake in serum of EMT6 tumor bearing BALB/c mouse at 30 to 300 mg/kg, po administered twice daily measured after 2 days; format: ADME, organism-based; conditions: in vivo, 48 h, dose 30-300 mg/kg, time 2 day
EMT6 [16] = test: In vivo inhibition of […] in EMT6 tumor bearing BALB/c mouse assessed as elevated arginine levels in serum at 250 mg/kg, po administered twice daily measured after 14 days; format: functional, organism-based; conditions: time 14.0 day

SMILES | IC50 (Arginase-1 [1]) [µM] | bioavailability [2] [%] | bioavailability [4] [%] | EC50 (Arginase-1 [5]) [µM] | further results
CC(C)[C@@H](N)C(=O)N[C@H]1CN[C@H](C(=O)O)[C@@H]1CCCB(O)O | 0.034 | – | – | – | –
CC(C)[C@H](N)C(=O)N[C@H]1CN[C@H](C(=O)O)[C@@H]1CCCB(O)O | 0.002 | 13 | – | – | Stabilty [3]: Unstable
CN[C@H](C(=O)N[C@H]1CN[C@H](C(=O)O)[C@@H]1CCCB(O)O)C(C)C | 0.005 | 4.6 | – | – | –
O=C(O)[C@H]1NC[C@H](O)[C@H]1CCCB(O)O | 0.004 | 41 | 12 | 6.9 | –
CN(C)[C@H]1CN[C@H](C(=O)O)[C@@H]1CCCB(O)O | 0.066 | 17 | – | – | –
O=C(O)[C@H]1NC[C@H]1CCCB(O)O | – | 42 | – | – | –
C[C@@H]1C[C@@H](CCCB(O)O)[C@@H](C(=O)O)N1 | 0.007 | 31 | – | 2.8 | –
O=C(O)[C@@]1(CCN2CCCCC2)NCC[C@H]1CCCB(O)O | 0.07 | 8.5 | 2.7 | > 30 | –
O=C(O)C1CC(CCB(O)O)CN1 (racemic) | 8.73 | – | – | – | –
NC[C@@]1(CCCB(O)O)CCN[C@@H]1C(=O)O | 0.005 | – | – | 14 | –
NC[C@@H]1C[C@@H](CCCB(O)O)[C@@H](C(=O)O)N1 | 0.03 | 44 | 51 | 16 | –
C[C@H](N)C(=O)N[C@H]1CN[C@H](C(=O)O)[C@@H]1CCCB(O)O | 0.011 | 3 | – | – | bioavailability [6]: 27%; Drug metabolism [7]: Metabolite_Detected; Stabilty [3]: Unstable
O=C(O)[C@H]1NCCO[C@H]1CCCB(O)O | – | 14 | 10 | – | –
O=C(O)[C@H]1NCC[C@@H]1CCCB(O)O | – | 44 | 34 | – | –
CC(C)(C)[C@H](N)C(=O)N[C@H]1CN[C@H](C(=O)O)[C@@H]1CCCB(O)O | < 0.001 | 34 | – | – | –
O=C(O)[C@H]1N[C@H](CO)C[C@H]1CCCB(O)O | 0.008 | 12 | 12 | 4.2 | –
O=C(O)[C@H]1NCC[C@H]1CCCB(O)O | 0.016 | 43 | 25 | 3.4 | Drug uptake [8]: Active; Activity (EMT6 [9]): Dose-Dependent Effect; Activity (EMT6 [10]): Dose-Dependent Effect; inhibition (EMT6 [11]): Active; Activity [12]: Non-Toxic; inhibition (EMT6 [13]): Active; inhibition (EMT6 [14]): Active; Drug uptake [15]: Active; inhibition (EMT6 [16]): Active
C[C@@]1(CCCB(O)O)CCN[C@@H]1C(=O)O | 0.033 | 19 | 9 | 6.3 | –
CO[C@H]1CN[C@H](C(=O)O)[C@@H]1CCCB(O)O | – | – | – | 28 | –
O=C(O)[C@H]1NC[C@H](NCC(F)(F)F)[C@H]1CCCB(O)O | – | 10 | – | – | –
N[C@H]1CN[C@H](C(=O)O)[C@@H]1CCCB(O)O | 0.003 | 14 | – | 20 | –
O=C(O)[C@H]1NC[C@@H]1CCCB(O)O | – | 50 | – | – | –
O=C(O)[C@H]1NCC[C@@]1(CO)CCCB(O)O | 0.019 | 34 | 39 | 11 | –
CN[C@H]1CN[C@H](C(=O)O)[C@@H]1CCCB(O)O | – | 11 | – | – | –
